Values joined by “and” are separate entries in the source; they are usually repeats but may differ in a detail not shown here. Equal entries are not always repeated. Where two headings read alike, the source gives them in different places. Non-standard residues stand in square brackets, D forms with d. Residues, ends and D or L forms follow the SMILES beside them. NMeH = CN[C@@H](Cc1c[nH]cn1)C(=O)O; Gly(N-CH2CH2OH) = O=C(O)CNCCO; NMeL = CN[C@@H](CC(C)C)C(=O)O
Experiments:
[1] = molecular target: T1, HCoV-229E spike protein (Human coronavirus 229E, UniProt P15423); assay: Surface plasmon resonance (SPR) direct binding; settings: spike immobilized on CM5 chip, HBS-P+ buffer, 25 °C, 1:1 model, koff/kon
T1 construct: purchased Acrobiosystems SPN-H52H3
T1 sequence (P15423 16-1173): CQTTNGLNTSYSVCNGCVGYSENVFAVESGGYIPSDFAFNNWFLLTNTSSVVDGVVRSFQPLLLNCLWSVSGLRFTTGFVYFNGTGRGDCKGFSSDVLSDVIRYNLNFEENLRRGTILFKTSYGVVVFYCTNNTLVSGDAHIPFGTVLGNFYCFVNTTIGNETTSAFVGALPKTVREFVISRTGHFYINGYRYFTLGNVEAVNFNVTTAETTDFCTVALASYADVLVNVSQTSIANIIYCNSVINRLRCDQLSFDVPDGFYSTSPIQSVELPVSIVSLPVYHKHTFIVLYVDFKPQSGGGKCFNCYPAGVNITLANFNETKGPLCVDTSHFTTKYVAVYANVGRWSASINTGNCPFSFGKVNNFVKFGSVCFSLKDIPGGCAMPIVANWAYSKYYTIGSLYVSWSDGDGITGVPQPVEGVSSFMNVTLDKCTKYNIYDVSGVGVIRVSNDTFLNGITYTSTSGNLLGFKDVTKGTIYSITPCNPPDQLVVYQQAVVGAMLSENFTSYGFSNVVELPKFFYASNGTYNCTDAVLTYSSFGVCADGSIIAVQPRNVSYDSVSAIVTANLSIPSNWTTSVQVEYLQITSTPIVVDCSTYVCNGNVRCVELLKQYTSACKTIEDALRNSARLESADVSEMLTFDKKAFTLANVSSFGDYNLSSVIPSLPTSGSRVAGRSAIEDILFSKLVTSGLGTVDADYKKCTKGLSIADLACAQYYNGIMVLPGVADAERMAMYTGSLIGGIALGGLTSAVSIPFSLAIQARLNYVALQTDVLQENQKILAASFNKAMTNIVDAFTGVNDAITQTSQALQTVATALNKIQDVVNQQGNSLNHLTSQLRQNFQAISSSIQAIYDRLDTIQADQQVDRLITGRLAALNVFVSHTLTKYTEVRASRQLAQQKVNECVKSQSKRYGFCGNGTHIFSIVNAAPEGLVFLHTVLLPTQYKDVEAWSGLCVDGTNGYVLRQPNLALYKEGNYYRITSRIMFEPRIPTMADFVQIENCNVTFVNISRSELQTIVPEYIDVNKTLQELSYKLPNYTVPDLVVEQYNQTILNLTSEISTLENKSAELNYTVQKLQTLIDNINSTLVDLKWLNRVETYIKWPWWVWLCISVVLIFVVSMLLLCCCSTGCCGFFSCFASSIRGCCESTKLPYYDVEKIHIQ

[2] = tested on: 229E Coronavirus
[3] = molecular target: T1, HCoV-229E spike protein; assay: Microscale thermophoresis (MST) direct binding; settings: NT647-labeled spike protein, PBS, triplicate
[4] = molecular target: T1, HCoV-229E spike protein; assay: Nanoscale differential scanning fluorometry (nanoDSF) thermal shift; type: binding; settings: for ∆Tm: 200 μM compound, 2 μM spike protein, PBS pH 7.4; for Tm: 200 μM peptide, 2 µM protein, ramp 20-95 °C
[5] = tested on: Influenza A H1N1 Virus; parameters: method as in earlier work; settings: concentration that reduced the cytopathic effect by 50%; cited from earlier work
[6] = concentration that reduced the cytopathic effect by 50%, virus pre-incubated with compound 1 h at 4 °C, compound present 72 h, MRC-5 cells, mean ± standard error of three experiments

Structure (SMILES) | Kd [1] [nM] | EC50 [2, 6] | Kd [3] [nM] | ∆Tm [4] [°C] | Tm [4] [°C] | EC50 [5] [nM] | EC50 ([2]; read-out: EC50, Infection Cycle, compound present during adsorption and entire replication cycle (1 h + 72 h)) [nM]
CC(=O)N[C@@H](CO)C(=O)N[C@@H](CC(C)C)C(=O)N[C@@H](CC(=O)O)C(=O)N[C@@H](CS)C(N)=O [Compound 1, SLDC] (Ac-SLDC-NH2) | > 50000 | 50 ± 0.4 nM | 4920 ± 700 |  |  |  | 
CC(=O)N[C@@H](CO)C(=O)N[C@@H](CCCCN)C(=O)N[C@@H](Cc1c[nH]cn1)C(=O)N[C@@H](CO)C(N)=O [Compound 2, SKHS] (Ac-SKHS-NH2) | 41400 ± 870 | 500 ± 2 nM | 5120 ± 600 |  |  |  | 
CC(=O)N[C@@H](CO)C(=O)N(C)[C@@H](CC(C)C)C(=O)N[C@@H](CC(=O)O)C(=O)N[C@@H](CS)C(N)=O [Compound 4, S(N-Me)LDC] (Ac-S[NMeL]DC-NH2) | 1150 ± 182 |  | 2600 ± 1300 | 0.1 | 81.7 | 0.085 ± 0.0004 | 
CC(=O)N[C@@H](CO)C(=O)N[C@@H](CCCCN)C(=O)N[C@@H](Cc1c[nH]cn1)C(=O)N(CCO)CC(N)=O [Compound 6, SKHNhS] (Ac-SKH[Gly(N-CH2CH2OH)]-NH2) | 1510 ± 465 |  | 11000 ± 800 | 0.4 | 82.0 | 0.5 ± 0.004 | 
CC(=O)N[C@@H](CO)C(=O)N[C@@H](CCCCN)C(=O)N(C)[C@@H](Cc1c[nH]cn1)C(=O)N[C@@H](CO)C(N)=O [Compound 3, SK(N-Me)HS] (Ac-SK[NMeH]S-NH2) | 416 ± 442 | ~0.031 nM and 0.031 nM | 390 ± 50 | 0.3 | 81.9 | 0.142 ± 0.002 | 0.043

— article PMC12389581, “Inhibition of Human Coronavirus 229E by Lactoferrin-Derived Peptidomimetics” (Pharmaceutics, 2025)
